Measured values as given in ChEMBL document CHEMBL4052616, “Isoniazid derivatives and their anti-tubercular activity” (Eur J Med Chem, 2017).
In brackets after ≈: the same amount, converted by molar mass.

System: Mycobacterium tuberculosis variant bovis
Assay: Antimycobacterial activity against Mycobacterium bovis 8 by serial dilution method
Type: functional

## NNC(=O)c1ccncc1 [ISONIAZID]
  MIC: 0.015 to 0.06 µg/mL (≈ 0.109 to 0.438 µM)
